Holding throughout (assay): relative viability (nuclei count vs DMSO), 5 days (fraction); higher = more cells survive
Compound in the assay “XMD13-2 + Trametinib”: C1CC1C(=O)NC2=NNC3=C2C=CC(=C3)C4=CC(=CC=C4)C(=O)NC5CC5 [XMD13-2] + CC(=O)Nc1cccc(-n2c(=O)n(C3CC3)c(=O)c3c(Nc4ccc(I)cc4F)n(C)c(=O)c(C)c32)c1 [Trametinib] (partner 0.02 µM)
In short, it runs like this:
(§1)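 Lung cancer cell lines, seeded in 1536-well plates, were treated the following day by pin tool with a single drug or with five library-drug doses (not always all listed) in √10 steps on top of a fixed anchor-drug dose. Cells were fixed and nuclei stained in one step after 5 days, and nuclei were counted. Relative viability is the nuclei count for treated wells divided by that for vehicle wells, reported as medians of duplicate plates.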

Compound in the assay “XMD13-2 + OSI-027”: C1CC1C(=O)NC2=NNC3=C2C=CC(=C3)C4=CC(=CC=C4)C(=O)NC5CC5 [XMD13-2] + COc1cccc2cc(-c3nc([C@H]4CC[C@H](C(=O)O)CC4)n4ncnc(N)c34)[nH]c12 [OSI-027] (partner 0.5 µM)
In short, it runs like this:
as §1

Compound in the assay “Dasatinib + Alpelisib”: Cc1nc(Nc2ncc(C(=O)Nc3c(C)cccc3Cl)s2)cc(N2CCN(CCO)CC2)n1 [Dasatinib] + Cc1nc(NC(=O)N2CCC[C@H]2C(N)=O)sc1-c1ccnc(C(C)(C)C(F)(F)F)c1 [Alpelisib] (partner 2 µM)
Put shortly:
as §1

Compound in the assay “Dasatinib + Decitabine”: Cc1nc(Nc2ncc(C(=O)Nc3c(C)cccc3Cl)s2)cc(N2CCN(CCO)CC2)n1 [Dasatinib] + Nc1ncn([C@H]2C[C@H](O)[C@@H](CO)O2)c(=O)n1 [Decitabine] (partner 2 µM)
In short, it runs like this:
as §1

For the cell line UMC-11, the relative viability came out at 0.908 with XMD13-2 + Trametinib (first compound 0.05 µM); 0.708 in the assay with XMD13-2 + Trametinib (first compound 0.1581 µM); 0.726 with XMD13-2 + Trametinib (first compound 0.5 µM); 0.685 in the assay with XMD13-2 + Trametinib (first compound 1.581 µM); 0.513 with XMD13-2 + Trametinib (first compound 5 µM); 0.438 with XMD13-2 + OSI-027 (first compound 0.05 µM). Moreover, the relative viability in the assay with XMD13-2 + OSI-027 (first compound 0.1581 µM) stood at 0.404; with XMD13-2 + OSI-027 (first compound 0.5 µM) it was 0.474; with XMD13-2 + OSI-027 (first compound 1.581 µM), 0.453; in the assay with XMD13-2 + OSI-027 (first compound 5 µM), 0.351; in the assay with Dasatinib + Alpelisib (first compound 0.005 µM), 0.988; with Dasatinib + Alpelisib (first compound 0.01581 µM), 0.768. In addition, the relative viability was determined as 0.752 in the assay with Dasatinib + Alpelisib (first compound 0.05 µM); 0.347 with Dasatinib + Alpelisib (first compound 0.1581 µM); 0.264 in the assay with Dasatinib + Alpelisib (first compound 0.5 µM); 0.58 in the assay with Dasatinib + Decitabine (first compound 0.005 µM); 0.595 with Dasatinib + Decitabine (first compound 0.01581 µM); 0.532 in the assay with Dasatinib + Decitabine (first compound 0.05 µM). The relative viability in the assay with Dasatinib + Decitabine (first compound 0.1581 µM) was determined as 0.292; with Dasatinib + Decitabine (first compound 0.5 µM), 0.246.

Values taken from the supplement of paper PMC10307832.
